Measured values from patent US4574080A, “Combination formulation” (A/S Alfred Benzon, priority 1982, dated 1986).

What was measured:
[1] = Adhesion of clopamide to (film-coated) potassium chloride crystals after dry coating / mechanical stress; assay type: physicochemical; conditions: for A: amount of clopamide adhered immediately after the dry coating / B: clopamide adhered per dose of finished granulate / C: clopamide removed during mixing of the granulate (A-B): Table 2, Talc 2.0 ×
Protocol: A sample containing film-coated KCl-crystals with clopamide adhered to the surface was placed on a sieve.
The sieve and sample were shaken (Pascal sieve, model 1) for 15 minutes. The quantity of clopamide adhered to the film-coated crystals was then determined as described under Content Uniformity (clopamide)
The amount of clopamide adhered was determined as described under MATERIALS AND METHODS. In Table 1, the influence of the anti-adhesive and the coating time on the adhesion tendency of clopamide is shown.
As a considerable amount of the clopamide (about 20%) is removed by the admixture of the necessary auxiliary materials for the tabletting process (vide Table 1), it was examined whether a more gentle, but more laborious method in which the auxiliary materials are premixed separately, thus reducing the final mixing time, would reduce this removal.
The examinations were carried out as described above for the examination of the adhesion tendency of clopamide, and the amount of clopamide adhered was again determined as described under MATERIALS AND METHODS; the dry coating time was 60 minutes. The results are shown in Table 3 wherein A, B and C are as described above, and D designates the relative amount of adhered clopamide abrased during the final mixing [formula]

[2] = Diuretic effect (urine volume) in healthy subjects; assay type: in vivo, human (healthy subjects); conditions: clopamide 20 mg
Protocol: Complete balanced cross-over study with single dose administration.
Blood samples were collected 36 hours and urine samples 24 hours after administration.
10 healthy subjects without any history of renal, hepatic, gastrointestinal or heart disease.
Clopamide 20 mg and potassium chloride 2400 mg (32 mEq):
Two days before drug administration and throughout the test days the volunteers were kept on a low potassium diet (less than 30 mEq) and a standardized calorie intake of about 2000 kcal per day. No tea, coffee or alcohol was allowed. For the individual person the diet was identical on all six test days (2 period of 3 days).
The day before drug aministration the volunteers were given 100 ml water every hour from 09.00 a.m. during the next 12 hours, i.e. 1300 ml water per day. The same procedure was followed on the test day.
Blood samples were drawn before dosing and 1, 2, 3, 4, 6, 8, 12, 24 and 36 hours after. Urine was collected quantitatively 24 hours before drug administration and 24 hours after in aliquots: 0-1 h, 1-2 h, 2-3 h, 3-4 h, 4-6 h, 6-8 h, 8-12 h, and 12-24 h.
Data which fulfil the requirement for using parametric tests were analyzed by a three-way analysis of variance, splitting the total variation up into variations between subjects, treatment periods, treatment and residual. Logarithmic transformations of the variables have been used in appropriate cases.

[3] = Colloidal silicon dioxide 0.13 × the amount of clopamide, coating time 10 min
[4] = Colloidal silicon dioxide 0.13 × the amount of clopamide, coating time 30 min
[5] = Colloidal silicon dioxide 0.13 × the amount of clopamide, coating time 60 min
[6] = gentle admixture of auxiliary materials (5 min), coating time 60 min
[7] = usual admixture of auxiliary materials (11 min), coating time 60 min
[8] = Talc 2.0 × the amount of clopamide, coating time 10 min
[9] = Talc 2.0 × the amount of clopamide, coating time 30 min
[10] = Talc 2.0 × the amount of clopamide, coating time 60 min
[11] = Talc […] the amount of clopamide, coating time 10 min
[12] = Talc […] the amount of clopamide, coating time 30 min
[13] = Talc […] the amount of clopamide, coating time 60 min
[14] = treatment days compared to control days

C[C@@H]1CCC[C@H](C)N1NC(=O)c1ccc(Cl)c(S(N)(=O)=O)c1 [Clopamide, 4-chloro-N--(cis-2,6-dimethylpiperidino)-3-sulfamoyl-benzamide]
A: amount of clopamide adhered in percent of the theoretical dose immediately after the dry coating [1, 3]: 70.4% | B: percentage of the theoretical dose of clopamide adhered per dose of finished granulate [1, 3]: 60.2% | C: percentage of a dose of clopamide removed during the mixing of the granulate (A-B) [1, 3]: 10.2% | A: amount of clopamide adhered in percent of the theoretical dose immediately after the dry coating [1, 4]: 75.2% | B: percentage of the theoretical dose of clopamide adhered per dose of finished granulate [1, 4]: 58.8% | C: percentage of a dose of clopamide removed during the mixing of the granulate (A-B) [1, 4]: 16.4% | A: amount of clopamide adhered in percent of the theoretical dose immediately after the dry coating [1, 5]: 85.8% | B: percentage of the theoretical dose of clopamide adhered per dose of finished granulate [1, 5]: 66.6% | C: percentage of a dose of clopamide removed during the mixing of the granulate (A-B) [1, 5]: 19.2% | A: amount of clopamide adhered immediately after the dry coating [1, 6]: 83.0% | B: clopamide adhered per dose of finished granulate [1, 6]: 70.0% | C: clopamide removed during mixing of the granulate (A-B) [1, 6]: 13.0% | A: amount of clopamide adhered immediately after the dry coating [1, 7]: 86.2% | B: clopamide adhered per dose of finished granulate [1, 7]: 70.6% | C: clopamide removed during mixing of the granulate (A-B) [1, 7]: 15.6% | A: amount of clopamide adhered in percent of the theoretical dose immediately after the dry coating [1, 8]: 76.4% | B: percentage of the theoretical dose of clopamide adhered per dose of finished granulate [1, 8]: 53.8% | C: percentage of a dose of clopamide removed during the mixing of the granulate (A-B) [1, 8]: 22.6% | A: amount of clopamide adhered in percent of the theoretical dose immediately after the dry coating [1, 9]: 87.6% | B: percentage of the theoretical dose of clopamide adhered per dose of finished granulate [1, 9]: 65.4% | C: percentage of a dose of clopamide removed during the mixing of the granulate (A-B) [1, 9]: 22.2% | A: amount of clopamide adhered in percent of the theoretical dose immediately after the dry coating [1, 10]: 86.2% | B: percentage of the theoretical dose of clopamide adhered per dose of finished granulate [1, 10]: 70.6% | C: percentage of a dose of clopamide removed during the mixing of the granulate (A-B) [1, 10]: 15.6% | A: amount of clopamide adhered in percent of the theoretical dose immediately after the dry coating [1, 11]: 96.4% | B: percentage of the theoretical dose of clopamide adhered per dose of finished granulate [1, 11]: 65.0% | C: percentage of a dose of clopamide removed during the mixing of the granulate (A-B) [1, 11]: 31.4% | A: amount of clopamide adhered in percent of the theoretical dose immediately after the dry coating [1, 12]: 88.4% | B: percentage of the theoretical dose of clopamide adhered per dose of finished granulate [1, 12]: 69.8% | C: percentage of a dose of clopamide removed during the mixing of the granulate (A-B) [1, 12]: 18.6% | A: amount of clopamide adhered in percent of the theoretical dose immediately after the dry coating [1, 13]: 100.2% | B: percentage of the theoretical dose of clopamide adhered per dose of finished granulate [1, 13]: 78.6% | C: percentage of a dose of clopamide removed during the mixing of the granulate (A-B) [1, 13]: 21.6% | effect of increased coating time on adhesion (in words) ([1]; talc as anti-adhesive): not only an increased adhesion, but also a more resistant adhesion | amount of clopamide removed by the admixture of the auxiliary materials ([1]; vide Table 1): about 20% | total 24 h urine, percent of that of control days ([2]; 95% CI 138.9 to 185.3%): 160.4% | 24 hours urine volume (in words) [2, 14]: statistically significant increase | hourly maximal urine volume (in words) [2, 14]: statistically significant increase
